# How the values were obtained:
# Assay type in all cases: cell-based
# [1] = system: S. aureus ATCC 33592; assay: Antibiotic Susceptibility of the Test Microorganisms
# [2] = system: S. aureus ATCC 25923; assay: Antibiotic susceptibility, reference microorganism
# [3] = system: E. coli ATCC 25922; assay: Antibiotic susceptibility, reference microorganism
# [4] = system: E. cloacae ATCC BAA-2468; assay: Antibiotic Susceptibility of the Test Microorganisms
# [5] = system: P. aeruginosa ATCC 27853; assay: Antibiotic susceptibility, reference microorganism
# [6] = system: A. baumannii ATCC BAA-1605; assay: Antibiotic Susceptibility of the Test Microorganisms
# [7] = system: E. faecalis ATCC 51575; assay: as above
# [8] = susceptibility ≥21 mm, resistance ≤17 mm (CLSI M100)
Structure (SMILES),Test Microorganism Demonstrates Resistance? [1],"Test Microorganism Diameter ([1]; susceptibility ≥13 mm, resistance ≤10 mm (CLSI M100)) [mm]",Reference Microorganism Diameter [2] [mm],Reference Microorganism Diameter [3] [mm],Test Microorganism Demonstrates Resistance? [4],"Test Microorganism Diameter [4, 8] [mm]",Reference Microorganism Diameter [5] [mm],Test Microorganism Demonstrates Resistance? [6],"Test Microorganism Diameter [6, 8] [mm]",Test Microorganism Demonstrates Resistance? [7],"Test Microorganism Diameter ([7]; susceptibility ≥17 mm, resistance ≤14 mm (CLSI M100)) [mm]"
Cc1onc(-c2ccccc2)c1C(=O)N[C@@H]1C(=O)N2[C@@H]1SC(C)(C)[C@@H]2C(=O)O [Oxocillin],Yes,9.2,51.9,–,–,–,–,–,–,–,–
CCN1CCN(C(=O)N[C@@H](C(=O)N[C@@H]2C(=O)N3[C@@H]2SC(C)(C)[C@@H]3C(=O)O)c2ccccc2)C(=O)C1=O [Piperacillin],–,–,–,25.3,Yes,6.5,26.2,Yes,6.5,–,–
CN[C@H](CC(C)C)C(=O)N[C@H]1C(=O)N[C@@H](CC(N)=O)C(=O)N[C@H]2C(=O)N[C@H]3C(=O)N[C@H](C(=O)N[C@H](C(=O)O)c4cc(O)cc(O)c4-c4cc3ccc4O)[C@H](O)c3ccc(c(Cl)c3)Oc3cc2cc(c3O[C@@H]2O[C@H](CO)[C@@H](O)[C@H](O)[C@H]2O[C@H]2C[C@](C)(N)[C@H](O)[C@H](C)O2)Oc2ccc(cc2Cl)[C@H]1O [Vancomycin],–,–,21.2,–,–,–,–,–,–,Yes,11.3

# Source: patent publication US12070594B2, “Biomedical electrode with anti-microbial properties” (Compass Health Brands Corp., priority 2018, dated 2024)
